Data from the NIST ThermoML archive (doi:10.1021/je020138s).
Numbers after ± are expanded uncertainties.

Key:
[1] = excess molar enthalpy (molar enthalpy of mixing); xn = mol fraction of the nth substance listed; conditions: 101 kPa, Liquid, Calvet calorimetry
[2] = xn = mol fraction of the nth substance listed; conditions: 308.15 K, 101 kPa, Liquid

CCCCOC(=O)CCC [butyl butanoate] + CCCCCCCCCCCC
excess molar enthalpy ([1]; 308 K, x1 = 0.0894): 0.0705 ± 0.000956 kcal/mol | excess molar enthalpy ([1]; 308 K, x1 = 0.1261): 0.0937 ± 0.0012 kcal/mol | excess molar enthalpy ([1]; 308 K, x1 = 0.1734): 0.123 ± 0.00167 kcal/mol | excess molar enthalpy ([1]; 308 K, x1 = 0.205): 0.137 ± 0.00167 kcal/mol | excess molar enthalpy ([1]; 308 K, x1 = 0.2668): 0.165 ± 0.00215 kcal/mol | excess molar enthalpy ([1]; 308 K, x1 = 0.3014): 0.176 ± 0.00215 kcal/mol | excess molar enthalpy ([1]; 308 K, x1 = 0.326): 0.183 ± 0.00239 kcal/mol | excess molar enthalpy ([1]; 308 K, x1 = 0.3509): 0.188 ± 0.00239 kcal/mol | excess molar enthalpy ([1]; 308 K, x1 = 0.4179): 0.203 ± 0.00263 kcal/mol | excess molar enthalpy ([1]; 308 K, x1 = 0.4544): 0.208 ± 0.00263 kcal/mol | excess molar enthalpy ([1]; 308 K, x1 = 0.517): 0.207 ± 0.00263 kcal/mol | excess molar enthalpy ([1]; 308 K, x1 = 0.5526): 0.207 ± 0.00263 kcal/mol | excess molar enthalpy ([1]; 308 K, x1 = 0.6779): 0.186 ± 0.00239 kcal/mol | excess molar enthalpy ([1]; 308 K, x1 = 0.7202): 0.174 ± 0.00215 kcal/mol | excess molar enthalpy ([1]; 308 K, x1 = 0.8233): 0.128 ± 0.00167 kcal/mol | excess molar enthalpy ([1]; 308 K, x1 = 0.8287): 0.125 ± 0.00167 kcal/mol | excess molar enthalpy ([1]; 308 K, x1 = 0.9006): 0.0808 ± 0.0012 kcal/mol | excess molar enthalpy ([1]; 308 K, x1 = 0.9307): 0.0574 ± 0.000717 kcal/mol | excess molar volume ([2]; x1 = 0.086): 2.25e-07 ± 1.6e-08 m3/mol | excess molar volume ([2]; x1 = 0.1642): 4.085e-07 ± 1.7e-08 m3/mol | excess molar volume ([2]; x1 = 0.2326): 4.99e-07 ± 1.8e-08 m3/mol | excess molar volume ([2]; x1 = 0.3151): 5.957e-07 ± 1.8e-08 m3/mol | excess molar volume ([2]; x1 = 0.4238): 6.386e-07 ± 1.9e-08 m3/mol | excess molar volume ([2]; x1 = 0.4435): 6.409e-07 ± 1.9e-08 m3/mol | excess molar volume ([2]; x1 = 0.5057): 6.525e-07 ± 1.9e-08 m3/mol | excess molar volume ([2]; x1 = 0.5458): 6.501e-07 ± 1.9e-08 m3/mol | excess molar volume ([2]; x1 = 0.6564): 5.883e-07 ± 1.8e-08 m3/mol | excess molar volume ([2]; x1 = 0.6617): 5.83e-07 ± 1.8e-08 m3/mol | excess molar volume ([2]; x1 = 0.6962): 5.604e-07 ± 1.8e-08 m3/mol | excess molar volume ([2]; x1 = 0.7365): 5.311e-07 ± 1.8e-08 m3/mol | excess molar volume ([2]; x1 = 0.7625): 4.759e-07 ± 1.8e-08 m3/mol | excess molar volume ([2]; x1 = 0.7821): 4.581e-07 ± 1.8e-08 m3/mol | excess molar volume ([2]; x1 = 0.8186): 4.073e-07 ± 1.7e-08 m3/mol | excess molar volume ([2]; x1 = 0.8623): 3.308e-07 ± 1.7e-08 m3/mol | excess molar volume ([2]; x1 = 0.9593): 1.15e-07 ± 1.6e-08 m3/mol

CCCCCCCCO [octan-1-ol] + CCCCCCCCCCCC
excess molar enthalpy ([1]; 308.15 K, x1 = 0.1345): 0.172 ± 0.00215 kcal/mol | excess molar enthalpy ([1]; 308.15 K, x1 = 0.1898): 0.187 ± 0.00239 kcal/mol | excess molar enthalpy ([1]; 308.15 K, x1 = 0.2658): 0.198 ± 0.00263 kcal/mol | excess molar enthalpy ([1]; 308.15 K, x1 = 0.3122): 0.2 ± 0.00263 kcal/mol | excess molar enthalpy ([1]; 308.15 K, x1 = 0.4077): 0.199 ± 0.00263 kcal/mol | excess molar enthalpy ([1]; 308.15 K, x1 = 0.4433): 0.196 ± 0.00239 kcal/mol | excess molar enthalpy ([1]; 308.15 K, x1 = 0.4591): 0.194 ± 0.00239 kcal/mol | excess molar enthalpy ([1]; 308.15 K, x1 = 0.5302): 0.186 ± 0.00239 kcal/mol | excess molar enthalpy ([1]; 308.15 K, x1 = 0.5667): 0.179 ± 0.00239 kcal/mol | excess molar enthalpy ([1]; 308.15 K, x1 = 0.6587): 0.158 ± 0.00215 kcal/mol | excess molar enthalpy ([1]; 308.15 K, x1 = 0.6595): 0.16 ± 0.00215 kcal/mol | excess molar enthalpy ([1]; 308.15 K, x1 = 0.7509): 0.126 ± 0.00167 kcal/mol | excess molar enthalpy ([1]; 308.15 K, x1 = 0.7661): 0.12 ± 0.00167 kcal/mol | excess molar enthalpy ([1]; 308.15 K, x1 = 0.8263): 0.0932 ± 0.0012 kcal/mol | excess molar enthalpy ([1]; 308.15 K, x1 = 0.8566): 0.0782 ± 0.000956 kcal/mol | excess molar enthalpy ([1]; 308.15 K, x1 = 0.8983): 0.0574 ± 0.000717 kcal/mol | excess molar enthalpy ([1]; 308.15 K, x1 = 0.9353): 0.0366 ± 0.000478 kcal/mol | excess molar enthalpy ([1]; 308.15 K, x1 = 0.97): 0.017 ± 0.000478 kcal/mol
